# From ChEMBL document CHEMBL4393660, “New pyrazole derivatives: Synthesis, anti-inflammatory activity, cycloxygenase inhibition assay and evaluation of mPGES” (Eur J Med Chem, 2019)
# Activity calls are given as the source filed them. No cut-off for these calls is given here.
# Assays:
# [1] = tested on: Rattus norvegicus; assay: Anti-inflammatory activity against carrageenan-induced albino rat paw edema model assessed as inhibition of carrageenan-induced right hind paw edema at 10 umol/kg, sc treated 1 hr prior to carrageenan challenge and measured immediately after carrageenan treatment by plethysmometer relative to control; type: functional
# [2] = biological target: Prostaglandin G/H synthase 1 (Homo sapiens, UniProt P23219); assay: (§1) Inhibition of human recombinant COX1 assessed as reduction in PGF2alpha formation using arachidonic acid as substrate preincubated with enzyme for 10 mins followed by substrate addition for 30 secs and measured after 1 hr by microplate reader based enzyme immunoassay
# Chain of Prostaglandin G/H synthase 1 (P23219 whole entry): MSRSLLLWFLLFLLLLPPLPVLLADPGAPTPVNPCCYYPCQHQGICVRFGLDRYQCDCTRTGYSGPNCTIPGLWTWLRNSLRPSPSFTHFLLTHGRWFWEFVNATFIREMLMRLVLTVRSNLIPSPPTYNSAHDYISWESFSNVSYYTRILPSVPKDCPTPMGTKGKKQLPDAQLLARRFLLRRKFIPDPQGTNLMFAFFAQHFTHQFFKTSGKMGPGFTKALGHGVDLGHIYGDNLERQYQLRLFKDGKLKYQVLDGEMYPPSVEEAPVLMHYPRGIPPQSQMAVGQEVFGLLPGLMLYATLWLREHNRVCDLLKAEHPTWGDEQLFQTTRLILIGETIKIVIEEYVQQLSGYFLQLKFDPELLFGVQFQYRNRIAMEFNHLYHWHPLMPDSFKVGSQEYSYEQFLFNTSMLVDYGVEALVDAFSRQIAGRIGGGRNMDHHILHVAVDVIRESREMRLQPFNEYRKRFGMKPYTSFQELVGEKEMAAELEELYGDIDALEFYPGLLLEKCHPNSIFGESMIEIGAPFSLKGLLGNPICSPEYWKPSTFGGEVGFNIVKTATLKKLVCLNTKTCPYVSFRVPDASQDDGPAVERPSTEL
# [3] = organism: Homo sapiens; assay: as §1, with “Selectivity index, ratio” for “Inhibition”, “of IC50 for” for “of”, “COX1 to IC50 for human recombinant COX-2” for “COX1”
# [4] = biological target: T1, Prostaglandin G/H synthase 2 (Homo sapiens, UniProt P35354); assay: Inhibition of human recombinant COX-2 assessed as reduction in PGF2alpha formation using arachidonic acid as substrate preincubated with enzyme for 10 mins followed by substrate addition for 30 secs and measured after 1 hr by microplate reader based enzyme immunoassay
# T1 sequence (P35354 whole entry): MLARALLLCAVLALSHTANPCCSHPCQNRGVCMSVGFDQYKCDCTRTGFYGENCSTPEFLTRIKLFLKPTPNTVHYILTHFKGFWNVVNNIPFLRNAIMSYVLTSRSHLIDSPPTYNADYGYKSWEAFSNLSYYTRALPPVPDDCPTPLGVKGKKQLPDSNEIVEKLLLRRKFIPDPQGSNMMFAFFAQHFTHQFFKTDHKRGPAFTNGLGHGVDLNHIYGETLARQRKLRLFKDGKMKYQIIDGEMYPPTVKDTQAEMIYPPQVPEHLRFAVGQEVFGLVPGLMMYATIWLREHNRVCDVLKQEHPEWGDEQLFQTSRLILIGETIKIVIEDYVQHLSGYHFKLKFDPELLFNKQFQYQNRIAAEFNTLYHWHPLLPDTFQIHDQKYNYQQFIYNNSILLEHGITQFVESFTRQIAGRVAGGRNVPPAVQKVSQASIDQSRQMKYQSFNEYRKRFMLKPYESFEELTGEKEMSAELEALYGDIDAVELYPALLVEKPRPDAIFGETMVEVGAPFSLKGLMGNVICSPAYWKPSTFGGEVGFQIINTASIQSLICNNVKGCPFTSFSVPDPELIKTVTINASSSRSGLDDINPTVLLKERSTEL
# [5] = tested on: Rattus norvegicus; assay: Anti-inflammatory activity against carrageenan-induced albino rat paw edema model assessed as inhibition of carrageenan-induced right hind paw edema at 10 umol/kg, sc treated 1 hr prior to carrageenan challenge and measured at 2 hrs after carrageenan treatment by plethysmometer relative to control; type: functional
# [6] = Toxicity in carrageenan-induced albino rat paw edema model assessed as Inhibition of cytosolic PGE2 synthase expression in plasma at 10 umol/kg, sc treated 1 hr prior to carrageenan challenge measured after 2 hrs by microplate reader based monoclonal sandwich ELISA assay; type: organism-based; conditions: in vivo
# [7] = tested on: Rattus norvegicus; assay: Anti-inflammatory activity against carrageenan-induced albino rat paw edema model assessed as inhibition of PGE2 production in plasma at 10 umol/kg, sc treated 1 hr prior to carrageenan challenge measured after 2 hrs by microplate reader based enzyme immunoassay relative to control; type: functional
# [8] = tested on: Rattus norvegicus; assay: Anti-inflammatory activity against carrageenan-induced albino rat paw edema model assessed as inhibition of carrageenan-induced right hind paw edema at 10 umol/kg, sc treated 1 hr prior to carrageenan challenge and measured at 6 hrs after carrageenan treatment by plethysmometer relative to control; type: functional
# [9] = tested on: Rattus norvegicus; assay: Anti-inflammatory activity against carrageenan-induced albino rat paw edema model assessed as inhibition of carrageenan-induced right hind paw edema at 10 umol/kg, sc treated 1 hr prior to carrageenan challenge and measured at 1 hr after carrageenan treatment by plethysmometer relative to control; type: functional
# [10] = tested on: Rattus norvegicus; assay: Anti-inflammatory activity against carrageenan-induced albino rat paw edema model assessed as inhibition of carrageenan-induced right hind paw edema at 10 umol/kg, sc treated 1 hr prior to carrageenan challenge and measured at 3 hrs after carrageenan treatment by plethysmometer relative to control; type: functional
# [11] = tested on: Rattus norvegicus; assay: Anti-inflammatory activity against carrageenan-induced albino rat paw edema model assessed as inhibition of microsomal PGE2 synthase expression in plasma at 10 umol/kg, sc treated 1 hr prior to carrageenan challenge measured after 2 hrs by microplate reader based monoclonal sandwich ELISA assay; type: functional
# [12] = tested on: Rattus norvegicus; assay: Ratio of inhibition of microsomal PGE2 synthase expression to inhibition of cytosolic PGE2 synthase expression in plasma of carrageenan-induced albino rat paw edema model at 10 umol/kg, sc treated 1 hr prior to carrageenan challenge measured after 2 hrs by microplate reader based monoclonal sandwich ELISA assay
SMILES,IC50 [2] [µM],Ratio IC50 [3],IC50 [4] [µM],inhibition in vivo at 10 µmol/kg [1] [%],inhibition in vivo at 10 µmol/kg [5] [%],inhibition (INH) [6] [%],inhibition in vivo at 10 µmol/kg [7] [%],inhibition in vivo at 10 µmol/kg [8] [%],inhibition in vivo at 10 µmol/kg [9] [%],inhibition in vivo at 10 µmol/kg [10] [%],inhibition in vivo at 10 µmol/kg [11] [%],inhibition [1],fold change (FC) [12],inhibition [9]
CC(=O)Nc1c(C#N)cnn1-c1ccc(S(=O)(=O)NC(C)=O)cc1,0.879,14.3,0.0612,0,17.5,31.08,65.3,44.3,9.26,35,80,,,
N#Cc1cnn(-c2ccc(S(N)(=O)=O)cc2)c1/N=C/c1ccccc1,0.205,2.46,0.083,,,,,,,,,,,
N#Cc1cnn(-c2ccc(S(N)(=O)=O)cc2)c1NC(=O)c1ccccc1,0.0733,1.3,0.0562,,,,,,,,,,,
N#Cc1cnn(-c2ccc(S(N)(=O)=O)cc2)c1/N=C/c1ccc(Cl)cc1,0.169,0.89,0.19,,,,,,,,,,,
Cc1ccc(-c2cc(C(F)(F)F)nn2-c2ccc(S(N)(=O)=O)cc2)cc1 [CELECOXIB],,,,6.06,8.99,51.11,69.6,42.6,11.1,35,80,,,
N#Cc1cnn(-c2ccc(S(N)(=O)=O)cc2)c1/N=C/c1ccc(Br)cc1,0.116,1.78,0.0649,,,,,,,,,,,
COc1ccc(/C=N/c2c(C#N)cnn2-c2ccc(S(N)(=O)=O)cc2)cc1,0.513,13.1,0.0391,,5.29,52.43,64.4,42.3,,33.6,80.3,inactive,,inactive
COc1ccc(/C=N/c2c(C#N)cnn2-c2ccc(S(N)(=O)=O)cc2)cc1OC,0.163,3.72,0.0437,,,,,,,,,,,
N#Cc1cnn(-c2ccc(S(N)(=O)=O)cc2)c1/N=C/c1ccc(F)cc1,0.677,17.5,0.0387,,7.94,48.52,73.9,43,1.85,36.7,74.7,inactive,,

# More lines, main results first:
IC50 [2] [µM],Ratio IC50 [3],IC50 [4] [µM],SMILES,inhibition in vivo at 10 µmol/kg [1] [%],inhibition in vivo at 10 µmol/kg [5] [%],inhibition (INH) [6] [%],inhibition in vivo at 10 µmol/kg [7] [%],inhibition in vivo at 10 µmol/kg [8] [%],inhibition in vivo at 10 µmol/kg [9] [%],inhibition in vivo at 10 µmol/kg [10] [%],inhibition in vivo at 10 µmol/kg [11] [%],inhibition [1],fold change (FC) [12],inhibition [9]
0.0647,1.89,0.0342,N#Cc1cnn(-c2ccc(S(N)(=O)=O)cc2)c1NC(=O)CN1CCOCC1,,,,,,,,,,,
0.876,22.2,0.0394,N#Cc1cnn(-c2ccc(S(N)(=O)=O)cc2)c1NC(=O)CCN1CCOCC1,,27.5,44.43,76.2,44,2.04,39.5,74.1,inactive,1.5,
0.507,4.67,0.108,CC(Cl)C(=O)Nc1c(C#N)cnn1-c1ccc(S(N)(=O)=O)cc1 (configuration not stated),,,,,,,,,,,
0.123,2.12,0.058,N#Cc1cnn(-c2ccc(S(N)(=O)=O)cc2)c1NC(=O)CCCl,,,,,,,,,,,
0.104,5.24,0.0199,N#Cc1cnn(-c2ccc(S(N)(=O)=O)cc2)c1NC(=O)CCl,13.6,26.5,31.55,67.5,46,16.7,40.1,80.7,,2.5,
0.161,1.31,0.123,CC(C(=O)Nc1c(C#N)cnn1-c1ccc(S(N)(=O)=O)cc1)N1CCOCC1 (configuration not stated),,,,,,,,,,,
